This note sets out measurements from patent US7517532B2, “Dihydroxypyridopyrazine-1,6-dione compounds useful as HIV integrase inhibitors” (Merck & Co., Inc., priority 2002, dated 2009).

The structures appear in SMILES notation.

For orientation: IC95 means the concentration at which the effect reaches the 95% level. A higher IC95 goes with weaker potency.

This test concerns HIV. In words: Assay for inhibition of HIV replication (acute HIV infection of T-lymphoid cells). Format: cell-based. To be noted: Human immunodeficiency virus 1, T-lymphoid. On the procedure:
Assay for Inhibition of HIV Replication
Assays for the inhibition of acute HIV infection of T-lymphoid cells were conducted in accordance with Vacca, J. P. et al., Proc. Natl. Acad. Sci. USA 1994, 91: 4096.
The compound `CCCOC[C@@H]1[C@@H]2[C@H]1n1c(c(O)c(O)cc1=O)C(=O)N2Cc1ccc(F)cc1` (racemic) [Example 43, (±)-1-(n-Propoxymethyl)-2-(4-fluorobenzyl)-4,5-dihydroxy-1,1a,2,8a-tetrahydrocyclo-propa[e]pyrido[1,2-a]pyrazine-3,7-dione] showed an IC95 of less than 1 µM.
Under `CSc1cc(F)ccc1Cn1ccn2c(=O)cc(O)c(O)c2c1=O` [Example 30, 2-[4-Fluoro-2-(methylthio)benzyl)-8,9-dihydroxy-2H-pyrido[1,2-a]pyrazine-1,6-dione] stands less than 1 µM; under `Cc1c(O)c(O)c2n(c1=O)CCN(Cc1ccc(F)cc1)C2=O` [Example 3, 2-(4-Fluorobenzyl)-8,9-dihydroxy-7-methyl-3,4-dihydro-2H-pyrido[1,2-a]pyrazine-1,6-dione], less than 5 µM.
In turn, `CCOC[C@@H]1[C@@H]2[C@H]1n1c(c(O)c(O)cc1=O)C(=O)N2Cc1ccc(F)cc1` (racemic) [Example 42, (±)-1-(Ethoxymethyl)-2-(4-fluorobenzyl)-4,5-dihydroxy-1,1a,2,8a-tetrahydrocyclo-propa[e]pyrido[1,2-a]pyrazine-3,7-dione] displayed a concentration for an effect of 95% (IC95) of less than 1 µM.
Consider `O=C1c2c(O)c(O)c(I)c(=O)n2CCN1Cc1ccc(F)cc1` [Example 5, 2-(4-Fluorobenzyl)-8,9-dihydroxy-7-iodo-3,4-dihydro-2H-pyrido[1,2-a]pyrazine-1,6-dione], for which the IC95 was less than 5 µM.
For `O=C1c2c(O)c(O)cc(=O)n2CCN1Cc1ccccc1` [Example 1, 2-Benzyl-8,9-dihydroxy-3,4-dihydro-2H-pyrido[1,2-a]pyrazine-1,6-dione], the concentration for an effect of 95% (IC95) was less than 5 µM.
Under `CC1(C)CN(Cc2ccc(F)cc2)C(=O)c2c(O)c(O)cc(=O)n21` [Example 17, 2-(4-Fluorobenzyl)-8,9-dihydroxy4,4dimethyl-3,4-dihydro-2H-pyrido[1,2-a]pyrazine-1,6-dione] stands less than 5 µM.
For the compound `O=c1c2c(O)c(O)c(CN3CCOCC3)c(=O)n2ccn1Cc1ccc(F)cc1` [Example 28, 2-(4-Fluorobenzyl)-8,9-dihydroxy-7-[(morpholin4yl)methyl]-2H-pyrido[1,2-a]pyrazine-1,6-dione], the 95% effect concentration (IC95) is less than 1 µM.
`CC(=O)N1CCCC(Cc2c(O)c(O)c3n(c2=O)CCN(Cc2ccc(F)cc2)C3=O)C1` (stereo not drawn) [Example 34, 7-[(1-Acetylpiperidin-3-yl)methyl]-2-(4-fluorobenzyl)-8,9-dihydroxy-3,4-dihydro-2H-pyrido[1,2-a]pyrazine-1,6-dione]: the 95% effect concentration (IC95) was less than 1 µM.
With `CC1Cn2c(c(O)c(O)cc2=O)C(=O)N1Cc1ccc(F)cc1` (stereo not drawn) [Example 18, 2-(4-Fluorobenzyl)-8,9-dihydroxy-3-methyl-3,4-dihydro-2H-pyrido[1,2-a]pyrazine-1,6-dione] the figure was less than 5 µM; with `CC1CN(Cc2ccc(F)cc2)C(=O)c2c(O)c(O)cc(=O)n21` (stereo not drawn) [Example 16, 2-(4-Fluorobenzyl)-8,9-dihydroxy-4-methyl-3,4-dihydro-2H-pyrido[1,2-a]pyrazine-1,6-dione], less than 5 µM.
`O=C1c2c(O)c(O)cc(=O)n2CCN1Cc1ccc(Cl)cc1` [Example 7, 2-(4-Chlorobenzyl)-8,9-dihydroxy-3,4-dihydro-2H-pyrido[1,2-a]pyrazine-1,6-dione]: the concentration for an effect of 95% (IC95) is less than 5 µM.
Under `CN1CCN(Cc2c(O)c(O)c3c(=O)n(Cc4ccc(F)cc4)ccn3c2=O)CC1=O` [Example 27, 2-(4-Fluorobenzyl)-8,9-dihydroxy-7-[(4-methyl-3-oxopiperazin-1-yl)methyl]-2H-pyrido[1,2-a]pyrazine-1,6-dione] stands less than 1 µM.
With `CC(=O)N1CCCCC1Cc1c(O)c(O)c2n(c1=O)CCN(Cc1ccc(F)cc1)C2=O` (stereo not drawn) [Example 35, 7-[(1-Acetylpiperidin-2-yl)methyl]-2-(4-fluorobenzyl)-8,9-dihydroxy-3,4-dihydro-2H-pyrido[1,2-a]pyrazine-1,6-dione] the figure was less than 1 µM.
Under `O=c1c2c(O)c(O)c(CN3CCCCC3)c(=O)n2ccn1Cc1ccc(F)cc1` [Example 25, 2-(4-Fluorobenzyl)-8,9-dihydroxy-7-(piperidin-1-ylmethyl)-2H-pyrido[1,2-a]pyrazine-1,6-dione] stands less than 1 µM.
In the case of `CN(C)Cc1c(O)c(O)c2n(c1=O)CCN(Cc1ccc(F)cc1)C2=O` [Example 13, 2-(4-Fluorobenzyl)-8,9-dihydroxy-7-[(dimethylamino)methyl]-3,4-dihydro-2H-pyrido[1,2-a]pyrazine-1,6-dione], the concentration for an effect of 95% (IC95) is less than 5 µM.
`O=c1c2c(O)c(O)c(CN3CCSCC3)c(=O)n2ccn1Cc1ccc(F)cc1` [Example 29, 2-(4-Fluorobenzyl)-8,9-dihydroxy-7-[(thiomorpholin-4-yl)methyl]-2H-pyrido[1,2-a]pyrazine-1,6-dione] had a concentration for an effect of 95% (IC95) of less than 1 µM.
With `O=C1c2c(O)c(O)c(Br)c(=O)n2CCN1Cc1ccc(F)cc1` [Example 4, 2-(4-Fluorobenzyl)-8,9-dihydroxy-7-bromo-3,4-dihydro-2H-pyrido[1,2-a]pyrazine-1,6-dione] the figure was less than 5 µM.
